assay: Thermo Scientific Acclaim RSLC 120 C18, 100 × 2.1 mm, 2.2 µm, 30 °C; A: 90% water + 10% methanol + 0.01% formic acid + 5 mM ammonium formate; B: methanol + 0.01% formic acid + 5 mM ammonium formate; gradient (min/%B) 0.1/1 3/39 14/99.9 16/99.9; conditions: stereoisomer not certain

| LC retention time [min] | SMILES |
| --- | --- |
| 4.59 | CC(=O)Nc1ccc(S(=O)(=O)Nc2nc(C)cc(C)n2)cc1 |
| 4.64 | CCN(CC)C(=O)c1cccnc1 |
| 4.79 | COc1ccc(CC(C)NCC(O)c2ccc(O)c(NC=O)c2)cc1 (stereo unspecified) |
| 8.87 | COCCCOc1cc(CC(CC(N)C(O)CC(C(=O)NCC(C)(C)C(N)=O)C(C)C)C(C)C)ccc1OC (stereo unspecified) |
| 6.41 | c1ccc(CN(CC2=NCCN2)c2ccccc2)cc1 |
| 5.76 | COc1cc2[nH]c(C)c(CCN3CCN(c4ccccc4)CC3)c2cc1OC |
| 7.26 | CC(=O)c1ccc2c(c1)N(CC(C)N(C)C)c1ccccc1S2 (stereo unspecified) |
| 6.63 | CN(C)CCOC(c1ccccc1)c1ccccc1 |
| 1.39 | Nc1ccn(C2OC(CO)C(O)C2O)c(=O)n1 (stereo unspecified) |
| 4.33 | CCNCC(=O)Nc1c(C)cccc1C |
| 8.26 | CN1CC(=O)N2C(Cc3c([nH]c4ccccc34)C2c2ccc3c(c2)OCO3)C1=O (stereo unspecified) |
| 6.61 | O=C(O)c1cc(N=Nc2ccc(S(=O)(=O)Nc3ccccn3)cc2)ccc1O |
| 6.82 | COc1cc(NC(C)CCCN)c2ncccc2c1 (stereo unspecified) |
| 7.01 | CCCc1nn(C)c2c(=O)[nH]c(-c3cc(C(=O)CN4CCN(CC)CC4)ccc3OCC)nc12 |
| 10.4 | CC(C)C1CCC(C(=O)NC(Cc2ccccc2)C(=O)O)CC1 (stereo unspecified) |
| 9.86 | C(=Cc1ccccc1)CN1CCN(C(c2ccccc2)c2ccccc2)CC1 |
| 2.84 | CC1=C(C(=O)O)N2C(=O)C(NC(=O)C(N)c3ccc(O)cc3)C2SC1 (stereo unspecified) |
| 10.1 | CCOc1ccc2c(c1)C(C)=CC(C)(C)N2 |
| 3.91 | CC(C)(C)NCC(O)COc1cccc2c1CCC(=O)N2 (stereo unspecified) |
| 2.73 | NC(=O)c1cccnc1 |
| 8.23 | CCOC(=O)C(CCc1ccccc1)NC(C)C(=O)N1CC2(CC1C(=O)O)SCCS2 (stereo unspecified) |
| 3.73 | CN1C2CCC1CC(OC(=O)C(O)c1ccccc1)C2 (stereo unspecified) |

| LC retention time [min] | SMILES |
| --- | --- |
| 8.49 | CCC(=O)c1ccc2c(c1)N(CCCN(C)C)c1ccccc1S2 |
| 10.9 | CCCc1nn(C)c2c(=O)[nH]c(-c3cc(S(=O)(=O)N4CCCCC4)ccc3OCC)nc12 |
| 13 | CC(C)CCOc1ccc(NC(=S)Nc2ccc(OCCC(C)C)cc2)cc1 |
| 1.38 | CNCC(O)c1ccc(O)c(O)c1 (stereo unspecified) |
| 5.49 | CN(C)CCN1C(=O)c2ccccc2N(C)c2ccccc21 |
| 2.61 | S=c1nc[nH]c2nc[nH]c12 |
| 6.64 | CSc1ccc2c(c1)N(CCC1CCCCN1C)c1ccccc1S2=O (stereo unspecified) |
| 3.14 | CNC(=C[N+](=O)[O-])NCCSCc1ccc(CN(C)C)o1 |
| 3.48 | Nc1ccc(S(=O)(=O)Nc2ncccn2)cc1 |
| 7.53 | CC(CN1c2ccccc2Sc2ccccc21)N(C)C (stereo unspecified) |
| 5.79 | CNCCC(c1ccccc1)c1ccccn1 (stereo unspecified) |
| 6.18 | CCCCN1CCCCC1C(=O)Nc1c(C)cccc1C (stereo unspecified) |
| 10.6 | CC(O)C1C(=O)N2C(C(=O)O)=C(SC3CNC(C(=O)N(C)C)C3)C(C)C12 (stereo unspecified) |
| 1.52 | CCOC1OC(C(=O)O)C(O)C(O)C1O (stereo unspecified) |
| 4.49 | O=C1N=CCC=N1 |
| 8.23 | CN(C)CCC=C1c2ccccc2CCc2ccccc21 |
| 6.67 | CSc1ccc(C(=O)c2[nH]c(=O)[nH]c2C)cc1 |
| 6.47 | CC(CN1c2ccccc2Sc2cccnc21)N(C)C (stereo unspecified) |
| 7.23 | CN1CCC(OC(c2ccccc2)c2ccccc2)CC1 |
| 7.61 | CN(C)CCC=C1c2ccccc2CSc2ccccc21 |
| 3.76 | Cn1c(=O)c2c(ncn2CC(O)CO)n(C)c1=O (stereo unspecified) |
| 4.38 | NC(N)=NC(N)=NCCc1ccccc1 |

| LC retention time [min] | SMILES |
| --- | --- |
| 7.54 | CNCCOC(c1ccccc1)c1ccccc1C (stereo unspecified) |
| 7.91 | CC(CC(c1ccccc1)c1ccccc1)NC(C)(C)C (stereo unspecified) |
| 11.6 | CCCCC(CC)CN1C(=O)C2C3C=CC(C3)C2C1=O (stereo unspecified) |
| 13.8 | CON=C1CC2(CC3CC(CC=C(C)CC(C)C=CC=C4COC5C(O)C(C)=CC(C(=O)O3)C45O)O2)OC(C(C)=CC(C)C)C1C (stereo unspecified) |
| 13.4 | CCCCCCCCCCOc1cc2c(=O)c(C(=O)OCC)c[nH]c2cc1OCC |
| 5.86 | CCCS(=O)(=O)c1ccc2nc(NC(=O)OC)[nH]c2c1 |
| 6.32 | CN(C)CCN(Cc1cccs1)c1ccccc1 |
| 9.56 | CC12CCC3c4ccc(O)cc4CCC3C1CCC2=O (stereo unspecified) |
| 9.18 | CCC1OC(=O)C(C)C(OC2CC(C)(OC)C(O)C(C)O2)C(C)C(OC2OC(C)CC(N(C)C)C2O)C(C)(OC)CC(C)C(=O)C(C)C(O)C1(C)O (stereo unspecified) |
| 8.25 | CC1(OC(=O)C=Cc2ccccc2)CC(O)C2(O)C=COC(OC3OC(CO)C(O)C(O)C3O)C12 (stereo unspecified) |
| 11.5 | CCCc1nn(C)c2c(=O)[nH]c(-c3cc(S(=O)(=O)N4CCN(Cc5ccccc5)CC4)ccc3OCC)nc12 |
| 7.62 | COc1cc(OC)nc(NC(=O)NS(=O)(=O)c2c(-c3nnn(C)n3)cnn2C)n1 |
| 3.71 | NNCCc1ccccc1 |
| 9.14 | COCCCNc1nc(NC(C)C)nc(SC)n1 |
| 2.96 | CC(C)NCC(O)c1ccc(NS(C)(=O)=O)cc1 (stereo unspecified) |
| 6.86 | CC(C1=C(CCN(C)C)Cc2ccccc21)c1ccccn1 (stereo unspecified) |
| 10.6 | CCc1cccc2c3c([nH]c12)C(CC)(CC(=O)O)OCC3 (stereo unspecified) |
| 13.5 | CCCCCCCCCCCCOCCOCCOCCOCCO |
| 9.35 | CC(=O)OCC(=O)C12N=C(C)OC1CC1C3CCC4=CC(=O)C=CC4(C)C3C(O)CC12C (stereo unspecified) |
| 6.99 | Cc1cc(C(C)(C)C)c(O)c(C)c1CC1=NCCN1 |
| 6.71 | CN1C(=O)CC(C)(c2ccccc2)C1=O (stereo unspecified) |

The next lines start with the compound.

| SMILES | LC retention time [min] |
| --- | --- |
| CCOC(=O)C1(c2ccccc2)CCN(C)CC1 | 5.28 |
| CCOP(=S)(NC(C)C)Oc1ccccc1C(=O)OC(C)C (stereo unspecified) | 11.2 |
| COc1ccc2[nH]cc(CC(C)N)c2c1 (stereo unspecified) | 4.36 |
| CCCCCCn1cc(C(=O)c2cccc3ccccc23)c2ccccc21 | 12.9 |
| CNC(C)C(=O)c1ccc2c(c1)OCO2 (stereo unspecified) | 3.81 |
| CCC1(c2ccc(N)cc2)CCC(=O)NC1=O (stereo unspecified) | 4.99 |
| CC1(C)C(C(=O)c2cn(CC3CCOCC3)c3ccccc23)C1(C)C | 11.4 |
| Nc1ccc2c(c1)C(c1ccccc1)=NCC(=O)N2 | 4.78 |
| CC(C)C(O)(C(=O)OCC1=CC[N+]2([O-])CCC(O)C12)C(C)O (stereo unspecified) | 3.94 |
| COc1ccc2c3c1OC1C(=O)CCC4C(C2)N(C)CCC314 (stereo unspecified) | 3.69 |
| O=c1ccc2cc(OC3OC(CO)C(O)C(O)C3O)c(O)cc2o1 (stereo unspecified) | 3.69 |
| CN(C)C1CSSSC1 | 3.16 |
| Cc1ccc(-c2nc3ccc(C)cn3c2CC(=O)N(C)C)cc1 | 5.8 |
| CCCCCCC(C)(C)c1cc(O)c2c(c1)OC(C)(C)C1CC=C(CO)CC21 (stereo unspecified) | 13.5 |
| COP(=S)(OC)Oc1ccc(S(C)(=O)=O)c(C)c1 | 7.57 |
| CC12C=CC3=C4CCC(=O)C=C4CCC3C1CCC2O (stereo unspecified) | 8.89 |
| CC12CCC(=O)C=C1CCC1C2CCC2(C)C(OC(=O)c3ccccc3)CCC12 (stereo unspecified) | 13.8 |
| OC(c1ccccc1)(c1ccccc1)C1CCNCC1 | 6.19 |
| CCOC(=O)C(c1ccccc1)C1CCCCN1 (stereo unspecified) | 5.08 |
| CC(C)NCC(O)c1ccc(N)c(C#N)c1 (stereo unspecified) | 2.99 |
| CNC(=O)ON=C(C)C(C)S(C)=O (stereo unspecified) | 3.35 |
| CC#Cc1cc(C)nc(Nc2ccccc2)n1 | 10.2 |
| O=P(Oc1ccccc1)(Oc1ccccc1)Oc1ccccc1 | 11 |

| SMILES | LC retention time [min] |
| --- | --- |
| CCCC(C(=O)c1ccc2c(c1)OCO2)N1CCCC1 (stereo unspecified) | 5.18 |
| CC(C)c1ccc(NC(=O)N(C)C)cc1 | 8.32 |
| CCNc1nc(NC(C)(C)C)nc(SC)n1 | 10.2 |
| CCCCCn1cc(C(=O)NCc2ccccc2)c2ccccc21 | 11.2 |
| NCC1(CC(=O)O)CCCCC1 | 3.78 |
| C=CCN1CCC23c4c5ccc(O)c4OC2C(=O)CCC3(O)C1C5 (stereo unspecified) | 3.44 |
| CC=C1CC(C)C(C)(O)C(=O)OCC2=CCN(C)CCC(OC1=O)C2=O (stereo unspecified) | 5.16 |
| CCCCCCn1cc(C(=O)c2cccc3ccccc23)cc1-c1ccccc1 | 13.3 |
| Cc1nccc2c1[nH]c1ccccc12 | 4.91 |
| c1cc2c(c(NC3=NCCN3)c1)CCC2 | 4.76 |
| CNC(=O)Oc1cc(C)c(S(C)(=O)=O)c(C)c1 | 5.28 |
| CC(Cc1ccccc1)NCCn1cnc2c1c(=O)n(C)c(=O)n2C (stereo unspecified) | 5.06 |
| CC(C(=O)c1ccc2c(c1)OCO2)N1CCCC1 (stereo unspecified) | 4.13 |
| COc1ccc(N)cc1N | 2.37 |
| CSc1nc(N=[N+]=[N-])nc(NC(C)C)n1 | 9.71 |
| COC(C)C(O)(C(=O)OCC1=CCN2CCC(O)C12)C(C)C (stereo unspecified) | 4.27 |
| CN(C)c1ccc(N=Nc2ccccc2)cc1 | 12.4 |
| CC12CCC3C4CCC(=O)C=C4CCC3C1CCC2OC(=O)CCc1ccccc1 (stereo unspecified) | 13.6 |
| CCCCCn1cc(C(=O)c2cccc3ccccc23)c2ccc(OC)cc21 | 12.4 |
| CCOP(=O)(OCC)Oc1ccc([N+](=O)[O-])cc1 | 8.01 |
| CNC(=O)Oc1cccc2c1OC(C)(C)C2O (stereo unspecified) | 5.09 |
| CCN1CC2(COC)C(O)CC(OC)C34C5CC6(O)C(OC)C(O)C(OC(C)=O)(C5C6OC(=O)c5ccccc5)C(C(OC)C23)C14 (stereo unspecified) | 7.09 |
| CCNC(C)C(=O)c1ccc2c(c1)OCO2 (stereo unspecified) | 4.04 |

Source: the RepoRT retention time repository (doi:10.1016/j.jhazmat.2019.121712)
